One may read the IC50 as the concentration that inhibits the measured activity by half.

Like-named read-outs stand apart in the source and are kept apart here. A value given as a limit tells only on which side of the number the result lay.

Here are results for 21 compounds from patent publication US8183293B2, “Phenyl acetic acid derivatives” (Amgen Inc., priority 2007, dated 2012).

Assay [1] has as its target T1, human CRTH2 (Homo sapiens, UniProt Q9Y5Y4).
T1 construct: Full-length human CRTH2 cDNA was generated by polymerase chain reaction (PCR); expressed in transfected cells; host or cells: 293 cells stably transfected with pHLT124 (pCDNA3.1(+)), named 293(124)
T1 sequence (Q9Y5Y4 1-395): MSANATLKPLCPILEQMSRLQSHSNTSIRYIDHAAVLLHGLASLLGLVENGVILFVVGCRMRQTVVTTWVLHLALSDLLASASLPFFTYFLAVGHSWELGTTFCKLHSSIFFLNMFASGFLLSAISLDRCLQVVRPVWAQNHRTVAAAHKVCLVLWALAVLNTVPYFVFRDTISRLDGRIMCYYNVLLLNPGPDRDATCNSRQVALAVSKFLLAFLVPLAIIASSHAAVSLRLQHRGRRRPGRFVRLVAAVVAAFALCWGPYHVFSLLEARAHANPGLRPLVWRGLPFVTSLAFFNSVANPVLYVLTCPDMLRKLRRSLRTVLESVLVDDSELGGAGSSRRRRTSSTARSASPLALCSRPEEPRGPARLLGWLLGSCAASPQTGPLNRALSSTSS
The assay can be described thus: Human CRTH2 binding assay (3H-PGD2, 293(124) cells). How it is done:
Full-length human CRTH2 cDNA was generated by polymerase chain reaction (PCR) using human genomic DNA as template and subsequently cloned into pCDNA3.1(+) (Invitrogen), generating a CRTH2 expression plasmid pHLT124. The plasmid was transfected into 293 cells, […], using LipofectAMINE™ reagents (Gibco/BRL). G418 ([…]) was added to the culture 48 h after transfection and cells were maintained under selection for 3 weeks to ensure that all surviving cells stably expressed CRTH2. These cells are labeled as 293(124) hereafter.
^3H-PGD2 binding assay was performed using 293(124) cells. […] Each assay contained 25,000 cells, appropriate amount of test compound when necessary and a mixture of 1 nM ^3H-PGD2 (Amersham Pharmacia Biotech) and 30 nM of unlabeled PGD2 (Cayman Chemicals) in […] final volume. The cell mixture was incubated at room temperature for 2.5 h with shaking and the cells were separated from free ^3H-PGD2 and transferred onto a filter plate using a cell harvester. Radioactivity bound to the cells was measured on a liquid scintillation counter. Nonspecific binding was determined in the presence of […] of unlabeled PGD2.

The target in assay [2] is T2, DP (Homo sapiens, UniProt Q13258).
T2 sequence (Q13258 1-359): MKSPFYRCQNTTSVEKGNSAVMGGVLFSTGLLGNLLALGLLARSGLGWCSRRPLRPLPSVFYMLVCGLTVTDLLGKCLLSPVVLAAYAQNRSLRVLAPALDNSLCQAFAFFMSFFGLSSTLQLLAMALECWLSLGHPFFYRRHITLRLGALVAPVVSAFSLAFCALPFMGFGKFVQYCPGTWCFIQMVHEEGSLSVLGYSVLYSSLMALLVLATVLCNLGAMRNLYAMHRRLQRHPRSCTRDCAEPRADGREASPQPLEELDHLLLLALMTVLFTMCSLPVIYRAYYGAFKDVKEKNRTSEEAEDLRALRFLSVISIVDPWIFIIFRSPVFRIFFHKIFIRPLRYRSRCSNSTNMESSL
Description: DP activity (IC50). The class given is binding.

Setting [3] is: buffer, read-out: CRTH2 IC50 (nM) Buffer.
The mark [4] stands for this setting: plasma, read-out: CRTH2 IC50 (nM) Plasma.
[5] abbreviates: buffer, read-out: DP IC50 (nM) Buffer.
[6] abbreviates: plasma, read-out: DP IC50 (nM) Plasma.
Where [7] appears, read: whole blood, read-out: CRTH2 IC50 (nM) whole blood.
[8] abbreviates: whole blood, read-out: DP IC50 (nM) whole blood.

Turning to `CC(C)(C)NC(=O)c1ccc(Oc2cc(F)c(CC(=O)O)cc2Cl)c(NS(=O)(=O)c2ccc(OC(F)(F)C(F)F)cc2Cl)c1`, the IC50 is 4.6 nM in assay [1] (setting [3]), 10.9 nM in assay [1] (setting [4]), 5.9 nM in assay [2] (setting [5]) and 52.5 nM in assay [2] (setting [6]).
For `Cc1ccc(S(=O)(=O)Nc2cc(C(=O)NC(C)(C)C)ccc2Oc2cc(F)c(CC(=O)O)cc2Cl)c(Cl)c1` the same measures were 3.3 nM, 6.1 nM, 5.6 nM and 17.2 nM.
Take `CC(C)(C)NC(=O)c1ccc(Oc2cc(F)c(CC(=O)O)cc2Cl)c(NS(=O)(=O)c2ccc(C(F)(F)F)cc2Cl)c1`: the IC50 came to 3.5 nM in assay [1] (setting [3]); 8.1 nM in assay [1] (setting [4]); 1.1 nM in assay [1] (setting [7]); 12.6 nM in assay [2] (setting [5]); 43 nM in assay [2] (setting [6]); 26.6 nM in assay [2] (setting [8]).
Take `CC1(NC(=O)c2ccc(Oc3cc(F)c(CC(=O)O)cc3Cl)c(NS(=O)(=O)c3ccc(C4CC4)cc3Cl)c2)CCC1`: the IC50 is 3.9 nM in assay [1] (setting [3]), 7.6 nM in assay [1] (setting [4]), 4.4 nM in assay [2] (setting [5]) and 25.7 nM in assay [2] (setting [6]).
With `O=C(O)Cc1cc(Cl)c(Oc2ccc(C(=O)NC3CCC3)cc2NS(=O)(=O)c2ccc(C3CC3)cc2Cl)cc1F`, the half-maximal inhibitory concentration (IC50) is 3.3 nM in assay [1] (setting [3]); 7.9 nM in assay [1] (setting [4]); 0.5 nM in assay [1] (setting [7]); 4.6 nM in assay [2] (setting [5]); 18 nM in assay [2] (setting [6]); 0.6 nM in assay [2] (setting [8]).
Turning to `CC(C)(C)NC(=O)c1ccc(Oc2cc(F)c(CC(=O)O)cc2Cl)c(NS(=O)(=O)c2ccc(OC(F)(F)F)cc2Cl)c1`, the IC50 in assay [1] (setting [3]) came out at 9.3 nM; in assay [1] (setting [4]), 19.4 nM; in assay [1] (setting [7]), 2 nM; in assay [2] (setting [5]), 14.5 nM; in assay [2] (setting [6]), 37.8 nM; in assay [2] (setting [8]), 17.3 nM.
Turning to `CC1(NC(=O)c2ccc(Oc3cc(F)c(CC(=O)O)cc3Cl)c(NS(=O)(=O)c3ccc(C(F)(F)F)cc3Cl)c2)CCC1`, the IC50 was found to be 8.1 nM in assay [1] (setting [3]), 18.4 nM in assay [1] (setting [4]), 15.1 nM in assay [2] (setting [5]) and 41.9 nM in assay [2] (setting [6]).
The matching figures for `CC(C)(C)NC(=O)c1ccc(Oc2cc(F)c(CC(=O)O)cc2F)c(NS(=O)(=O)c2ccc(C3CC3)cc2Cl)c1`: 3 nM, 10 nM, 5 nM and 39 nM.
The matching figures for `CC1(NC(=O)c2ccc(Oc3cc(F)c(CC(=O)O)cc3Cl)c(NS(=O)(=O)c3ccc(OC(F)(F)F)cc3Cl)c2)CCC1`: 6.2 nM, 15.7 nM, 10.7 nM and 31.9 nM.
The matching figures for `Cc1ccc(S(=O)(=O)Nc2cc(C(=O)NC3(C)CCC3)ccc2Oc2cc(F)c(CC(=O)O)cc2Cl)c(Cl)c1`: 3.2 nM, 12.1 nM, 2.8 nM and 25.6 nM.
Consider `CCC(C)(C)NC(=O)c1ccc(Oc2cc(F)c(CC(=O)O)cc2Cl)c(NS(=O)(=O)c2ccc(C(F)(F)F)cc2Cl)c1`, for which the IC50 in assay [1] (setting [3]) came to 10 nM; in assay [1] (setting [4]), 35.8 nM; in assay [2] (setting [5]) it was 15.6 nM; in assay [2] (setting [6]), 51.6 nM.
As to `CCC(C)(C)NC(=O)c1ccc(Oc2cc(F)c(CC(=O)O)cc2Cl)c(NS(=O)(=O)c2ccc(C)cc2Cl)c1`, the IC50 in assay [1] (setting [3]) was determined as 4.9 nM; in assay [1] (setting [4]) it was 10.9 nM; in assay [2] (setting [5]), 3.9 nM; in assay [2] (setting [6]) it was 21.8 nM; in assay [2] (setting [8]), 18.3 nM.
Consider `Cc1ccc(S(=O)(=O)Nc2cc(C(=O)NC3CCC3)ccc2Oc2cc(F)c(CC(=O)O)cc2Cl)c(Cl)c1`, for which the IC50 in assay [1] (setting [3]) stood at 1.3 nM; in assay [1] (setting [4]), 7 nM; in assay [2] (setting [5]), 2.2 nM; in assay [2] (setting [6]) it was 22.9 nM.
In the case of `CC(C)(C)NC(=O)c1ccc(Oc2cc(F)c(CC(=O)O)cc2Cl)c(NS(=O)(=O)c2ccc(Cl)cc2Cl)c1`, the IC50 was determined as 5 nM in assay [1] (setting [3]), 13 nM in assay [1] (setting [4]), 18 nM in assay [2] (setting [5]) and 79 nM in assay [2] (setting [6]).
`CC(C)(C)NC(=O)c1ccc(Oc2cc(F)c(CC(=O)O)cc2Cl)c(NS(=O)(=O)c2ccc(C3CC3)cc2Cl)c1` [drawing 69]: the IC50 in assay [1] (setting [3]) was found to be 3 nM; in assay [1] (setting [4]) it was 8 nM; in assay [1] (setting [7]) it was 0.2 nM; in assay [2] (setting [5]) it was 3 nM; in assay [2] (setting [6]), 26 nM; in assay [2] (setting [8]), 1 nM.
`CCNC(=O)c1ccc(Oc2ccc(CC(=O)O)cc2Cl)c(NS(=O)(=O)c2ccc(Cl)cc2Cl)c1` [reference compound]: the IC50 in assay [1] (setting [3]) worked out at 2.2 nM; in assay [1] (setting [4]), 71 nM; in assay [2] (setting [5]), 12 nM.
`CCNC(=O)c1ccc(Oc2ccc(CC(=O)O)cc2Cl)c(NS(=O)(=O)c2ccc(OC)cc2)c1` [reference compound]: the values for the IC50 in assay [1] (setting [3]) and in assay [1] (setting [4]) were 2.7 nM and 16.7 nM, respectively.
For `CCNC(=O)c1ccc(Oc2ccc(CC(=O)O)cc2Cl)c(NS(=O)(=O)c2ccc(C)cc2)c1` [reference compound] the same measures were 2.3 nM and 26 nM.
Consider `CCNC(=O)c1ccc(Oc2ccc(CC(=O)O)cc2)c(NS(=O)(=O)c2ccc(Cl)cc2Cl)c1` [reference compound], for which the IC50 was found to be 4 nM in assay [1] (setting [3]), 92 nM in assay [1] (setting [4]), 120 nM in assay [2] (setting [5]) and 8420 nM in assay [2] (setting [6]).
For the compound `CCCCNC(=O)c1ccc(Oc2ccc(CC(=O)O)cc2Cl)c(NS(=O)(=O)c2ccc(Cl)cc2)c1` [reference compound], the half-maximal inhibitory concentration (IC50) amounted to 9.1 nM in assay [2] (setting [5]) and 100 nM in assay [2] (setting [6]).
With `CCNC(=O)c1ccc(Oc2cc(Br)c(CC(=O)O)cc2OC)c(NS(=O)(=O)c2ccc(F)cc2F)c1` [reference compound], the IC50 in assay [1] (setting [3]) is 1.6 nM; in assay [1] (setting [4]), 25.7 nM; in assay [2] (setting [5]) it was greater than 1e+06 nM.
